Reference: PubChem BioAssay AID1963425 (Molecular Pharmacology Branch, DTP, NCI, 2024)

Test system: 323965-272-R-J2-PDC complex spheroid growth, % test/control
Test: Anticancer human tumor 323965-272-R-J2-PDC patient-derived pancreatic carcinoma cell line growth inhibition [Asc]
Conditions: for IC50: curve of first compound; for viability, T/C: stronger effect = lower value; active means viability on the fitted dose curve at most 10% of control; inactive means the rest
Protocol: Multicellular complex tumor spheroid response to apoptosis pathway targeting inhibitors Alrizomadlin, Pelcitoclax, and Dasminapant in combination with a variety of drugs and investigational agents in selected tumor cell lines
The MDM2 inhibitor alrizomadlin, the Bcl-2/Bcl-xL inhibitor pelcitoclax, and the IAPs inhibitor dasminapant were evaluated both individually and in combination with standard of care and investigational anticancer small molecules within a complex spheroid model of solid tumors. . Complex spheroids include a stromal component modeled by human endothelial cells (HUVEC) and fibroblasts modeled by human mesenchymal stem cells (MSCs). The concentration ranges selected for each drug and investigational agent were based upon clinically achievable concentrations if the clinical Cmax of the agent was known.
Compounds. The drugs and investigational agents: alrizomadlin (APG-115; NSC831270), pelcitoclax (APG-1252; NSC835773), dasminapant (APG-1387;NSC834197), TAK-243 (NSC785004), copanlisib (NSC809693), olaparib (NSC753686), talazoparib (NSC767125), cobimetinib (NSC 768068), eltanexor (KPT-8602, NSC 794443), abemaciclib (NSC 768073), sotorasib (NSC818433), adagrasib (NSC 831453), MRTX-1133 (NSC 836407), Iadademestat (ORY1001, NSC 806812), and RMC-4630 (NSC839698), were obtained from the NCI Developmental Therapeutics Program Chemical Repository. The FDA-approved anticancer drug set is available from the Developmental Therapeutics Program at https://dtp.cancer.gov/organization/dscb/obtaining/available plates.htm. […] The stock solutions were prepared in dimethyl sulfoxide (DMSO, Sigma-Aldrich, St. Louis, MO, cat. D2650) at 800-fold the tested concentration and stored at -70 degrees C prior to their use. All drugs and investigational agents were tested over a range starting from a high concentration at or near the clinical Cmax and decreasing in half-log increments. If the clinical Cmax for an agent had not been determined, the highest concentration tested was 10 microM.
The patient-derived cancer (PDC) cell lines include five colon adenocarcinomas: 186277-243-T-J2-PDC, 616215-338-R-J1-PDC, 439559-082-T-J2-PDC, 463943-066-T-J2-PDC, and 519858-162-T-J1-PDC; three pancreatic carcinomas: 323965-272-R-J2-PDC, 521955-158-R6-J3-PDC, and 521955-158-R2-J5-PDC; two uterine sarcomas: 327498-152-R-J2-PDC and 993429-296-R-J1-PDC; two rhabdomyosarcomas: 755483-174-R-J1-PDC and 772245-204-R-J1-PDC; two soft tissue sarcomas: 126254-015-R-J1-PDC and 494315-158-R-J1-PDC; two malignant fibrous histiocytomas: 317291-083-R-J1-PDC and 596521-263-R-J1-PDC; two breast carcinomas: 171881-019-R-J1-PDC and 885512-296-R-J2-PDC; and one ovarian carcinoma: 6556581-035-R-J-PDC were obtained from the NCI PDMR, (https://pdmr.cancer.gov). The established cell lines HSSY-2 synovial sarcoma (RRID:CVCL 8719), SYO-1 synovial sarcoma (RRID:CVCL_7146), MPNST malignant peripheral neural sheath tumor were obtained from the Sloan Kettering Institute. The following established cell lines were purchased from the American Type Culture Collection (ATCC, Manassas, VA), Sor the received from the NCI repository:, PANC-1 pancreatic carcinoma (CRL-1469, RRID:CVCL_0480), OVCAR-5 ovarian carcinoma (RRID:CVCL_1628), OVCAR-8 ovarian carcinoma (RRID:CVCL_1629), , MCF-7 breast carcinoma (CRL-12584, RRID:CVCL_0031), MDA-MB-231 breast carcinoma (CRL-12532, RRID:CVCL_0062), NCI-H1876 small cell lung carcinoma (CRL-5902, RRID:CVCL_1503), NCI-H510A small cell lung carcinoma (HTB-184, RRID:CVCL_1565), NCI-H1417 (CRL-5869, RRID:CVCL_1469), and NCI-H196 small cell lung carcinoma (CRL-5823, RRID:CVCL_1509). Dr. Peter Houghton (Greehey Children's Cancer Research Institute, University of Texas Health Science Center, San Antonio, TX) provided Rh-18 rhabdomyosarcoma (RRID:CVCL_1659). Pooled donor human umbilical vein endothelial cells (HUVEC, Lonza, cat. CC-2519) and human mesenchymal stem cells (hMSC, Lonza, cat. PT-2501) were purchased from Lonza (Walkersville, MD).
Cell Culture. […]

[1] = second compound 0.00949 µM, first compound 0.0316 µM
[2] = second compound 0.00949 µM, first compound 0.1 µM
[3] = second compound 0.03 µM, first compound 0.0316 µM
[4] = second compound 0.03 µM, first compound 0.1 µM
[5] = second compound 0.0949 µM, first compound 0.0316 µM
[6] = second compound 0.0949 µM, first compound 0.1 µM
[7] = second compound 0.3 µM, first compound 0.0316 µM
[8] = second compound 0.3 µM, first compound 0.1 µM
[9] = second compound 0.949 µM, first compound 0.0316 µM
[10] = second compound 0.949 µM, first compound 0.1 µM
[11] = second compound 3 µM, first compound 0.0316 µM
[12] = second compound 3 µM, first compound 0.1 µM
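Further: compound exposure lasted 7 days starting three days after spheroid seeding.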
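Wherever viability, T/C is given: 100% = DMSO vehicle control wells with viability set relative to vehicle.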

Cn1ncnc1[C@H]1c2n[nH]c(=O)c3cc(F)cc(c23)N[C@@H]1c1ccc(F)cc1 + CCN1C(C(=O)NC23CCC(C(=O)O)(CC2)CC3)C(c2cccc(Cl)c2F)C2(C(=O)Nc3cc(Cl)ccc32)C12CCCCC2
inactive: viability, T/C (second compound 0.00949 µM, first compound 0.000316 µM) 114% | viability, T/C (second compound 0.00949 µM, first compound 0.001 µM) 104% | viability, T/C (second compound 0.00949 µM, first compound 0.00316 µM) 108% | viability, T/C (second compound 0.00949 µM, first compound 0.01 µM) 113% | viability, T/C [1] 112% | viability, T/C [2] 98.3% | viability, T/C (second compound 0.03 µM, first compound 0.000316 µM) 124% | viability, T/C (second compound 0.03 µM, first compound 0.001 µM) 116% | viability, T/C (second compound 0.03 µM, first compound 0.00316 µM) 122% | viability, T/C (second compound 0.03 µM, first compound 0.01 µM) 105% | viability, T/C [3] 116% | viability, T/C [4] 108% | viability, T/C (second compound 0.0949 µM, first compound 0.000316 µM) 123% | viability, T/C (second compound 0.0949 µM, first compound 0.001 µM) 116% | viability, T/C (second compound 0.0949 µM, first compound 0.00316 µM) 104% | viability, T/C (second compound 0.0949 µM, first compound 0.01 µM) 96.6% | viability, T/C [5] 103% | viability, T/C [6] 102% | viability, T/C (second compound 0.3 µM, first compound 0.000316 µM) 115% | viability, T/C (second compound 0.3 µM, first compound 0.001 µM) 118% | viability, T/C (second compound 0.3 µM, first compound 0.00316 µM) 125% | viability, T/C (second compound 0.3 µM, first compound 0.01 µM) 108% | viability, T/C [7] 114% | viability, T/C [8] 77.7% | viability, T/C (second compound 0.949 µM, first compound 0.000316 µM) 118% | viability, T/C (second compound 0.949 µM, first compound 0.001 µM) 114% | viability, T/C (second compound 0.949 µM, first compound 0.00316 µM) 110% | viability, T/C (second compound 0.949 µM, first compound 0.01 µM) 113% | viability, T/C [9] 117% | viability, T/C [10] 93.1% | viability, T/C (second compound 3 µM, first compound 0.000316 µM) 118% | viability, T/C (second compound 3 µM, first compound 0.001 µM) 109% | viability, T/C (second compound 3 µM, first compound 0.00316 µM) 96% | viability, T/C (second compound 3 µM, first compound 0.01 µM) 105% | viability, T/C [11] 96.9% | viability, T/C [12] 85.8%
> 0.1 µM: IC50 (second compound 0.00949 µM) | IC50 (second compound 0.03 µM) | IC50 (second compound 0.0949 µM) | IC50 (second compound 0.3 µM) | IC50 (second compound 0.949 µM) | IC50 (second compound 3 µM)

O=C(c1cc(Cc2n[nH]c(=O)c3ccccc23)ccc1F)N1CCN(C(=O)C2CC2)CC1 + CCN1C(C(=O)NC23CCC(C(=O)O)(CC2)CC3)C(c2cccc(Cl)c2F)C2(C(=O)Nc3cc(Cl)ccc32)C12CCCCC2
inactive: viability, T/C [1] 106% | viability, T/C [2] 107% | viability, T/C (second compound 0.00949 µM, first compound 0.316 µM) 113% | viability, T/C (second compound 0.00949 µM, first compound 1 µM) 110% | viability, T/C (second compound 0.00949 µM, first compound 3.16 µM) 110% | viability, T/C (second compound 0.00949 µM, first compound 10 µM) 91.5% | viability, T/C [3] 103% | viability, T/C [4] 111% | viability, T/C (second compound 0.03 µM, first compound 0.316 µM) 106% | viability, T/C (second compound 0.03 µM, first compound 1 µM) 106% | viability, T/C (second compound 0.03 µM, first compound 3.16 µM) 107% | viability, T/C (second compound 0.03 µM, first compound 10 µM) 95.8% | viability, T/C [5] 113% | viability, T/C [6] 107% | viability, T/C (second compound 0.0949 µM, first compound 0.316 µM) 111% | viability, T/C (second compound 0.0949 µM, first compound 1 µM) 108% | viability, T/C (second compound 0.0949 µM, first compound 3.16 µM) 116% | viability, T/C (second compound 0.0949 µM, first compound 10 µM) 100% | viability, T/C [7] 116% | viability, T/C [8] 107% | viability, T/C (second compound 0.3 µM, first compound 0.316 µM) 117% | viability, T/C (second compound 0.3 µM, first compound 1 µM) 117% | viability, T/C (second compound 0.3 µM, first compound 3.16 µM) 103% | viability, T/C (second compound 0.3 µM, first compound 10 µM) 97.5% | viability, T/C [9] 112% | viability, T/C [10] 106% | viability, T/C (second compound 0.949 µM, first compound 0.316 µM) 122% | viability, T/C (second compound 0.949 µM, first compound 1 µM) 95.4% | viability, T/C (second compound 0.949 µM, first compound 3.16 µM) 109% | viability, T/C (second compound 0.949 µM, first compound 10 µM) 85.1% | viability, T/C [11] 102% | viability, T/C [12] 105% | viability, T/C (second compound 3 µM, first compound 0.316 µM) 107% | viability, T/C (second compound 3 µM, first compound 1 µM) 105% | viability, T/C (second compound 3 µM, first compound 3.16 µM) 92.4% | viability, T/C (second compound 3 µM, first compound 10 µM) 93.3%
> 10 µM: IC50 (second compound 0.00949 µM) | IC50 (second compound 0.03 µM) | IC50 (second compound 0.0949 µM) | IC50 (second compound 0.3 µM) | IC50 (second compound 0.949 µM) | IC50 (second compound 3 µM)
